Measured values: US20170153225A1, “A METHOD OF SCREENING FOR A COMPOUND CAPABLE OF STIMULATING GLUCOSE TRANSPORT INTO BROWN AND/OR BRITE ADIPOCYTES OF A MAMMAL, A KIT FOR USE IN SUCH A METHOD” (ATROGI AB, priority 2014, published 2017)

Tests used:
GLUT1 [1] = assay: Immunocytochemistry of total cellular GLUT1 in permeabilized cells; assay type: cell-based, NMRI mice; settings: isoproterenol 1 μM, 2 h
Procedure: (§1) Brown adipocytes were isolated as described in Example 1 and seeded onto BD Falcon culture chamber slides (BD Biosciences, Franklin Lakes, N.J.). Cells were serum starved the night prior to experiment. On day 7 the cells were challenged with inhibitors for 30 min before being stimulated for 1-2 hours with drugs as indicated. Cells were washed with warm PBS and fixed for 15 min (4% formaldehyde in PBS). Cells were washed with PBS and formaldehyde quenched with 50 mM glycine in PBS, and washed three times for 5 min each with PBS. Cells were blocked for 1 h at room temperature with 8% BSA in PBS, and washed three times for 5 min each with PBS. For permeabilizing the cells, the cells were treated with 10% triton x in PBS (dilution 1:40) before blocking. Primary antibody (2 μg/ml GLUT1 antibody (AbCam, Cambridge, UK), 1.5% BSA in PBS) was added and slides incubated over night at 4° C. The next day the cells were washed three times for 5 min each with PBS. Slides were then incubated with secondary antibody (3 μg/ml alexa488 conjugated goat antirabbit IgG (Invitrogen, Paisley, UK), 3% BSA in PBS) and washed three times for 5 min each with PBS. Slides were mounted with mounting media (8% 1,4-diazabicyclooctane, 75% glycerol in PBS) and sealed.

BAT = assay: Glucose uptake in brown fat (BAT) in vivo, [3H]-2DG; parameters: species or system FVB mice; settings: n=5
Procedure: Groups of FVB mice were fasted for 5 hours prior to study and anesthetized with pentobarbital (60 mg per kg of body weight, i.p.). Mice were then injected with a specific mTOR inhibitor KU 0063794 (10 mg/kg i.p.) or DMSO as control. Isoproterenol (1 mg/kg ip) or saline were injected after 10 min and [^3H]-2DG (130 μCi/kg body weight ip) 20 min prior to end time. BAT was dissected […], and tissues digested with 0.5M NaOH overnight. Glucose uptake was measured by liquid scintillation counting. All experiments were conducted with ethical permission (N388/12) from the North Stockholm Animal Ethics Committee.

[2] = test system: mature brown adipocytes primary cultures; assay: 2-deoxy-D-[1-3H]-glucose uptake in vitro in mature primary brown adipocytes; assay type: cell-based, NMRI mice; settings: for glucose uptake: isoproterenol 1 μM, 2 hours, p=0.0042, n=4-6
Procedure: Brown fat primary cells were isolated from NMRI mice (3-4 week-old) purchased from Nova-SCB AB, Sweden. All experiments were conducted with ethical permission (N388/12) from the North Stockholm Animal Ethics Committee. Animals were euthanized by CO2, and brown fat precursor cells were isolated from the intrascapular, axillary and cervical brown adipocyte depots as previously described (Hutchinson, Bengtsson 2006, Hutchinson, Chernogubova et al. 2006). The tissue was minced and transferred to a HEPES-buffered solution (pH 7.4) containing 0.2% (wt/vol) crude collagenase type II. Routinely, tissue from 6 mice was digested in 10 ml of the HEPES-buffered solution. The tissue was digested for 30 minutes at 37° C., with constant vortexing. The digest was filtered through a 250 μm filter and the solution incubated on ice for 15 min to allow the mature adipocytes and fat droplets to float. The infranatant was filtered through a 25 μm filter, centrifuged (10 min, 700×g), the pellet resuspended in DMEM (4.5 g D-glucose/l) and recentrifuged. The pellet was finally resuspended in 0.5 ml cell culture medium per mouse dissected. The cell culture medium consisted of DMEM (4.5 g D-glucose/l) supplemented with 10% newborn calf serum, 2.4 nM insulin, […], 50 IU/ml penicillin, 50 μg/ml streptomycin and 25 μg/ml sodium ascorbate. Aliquots of 0.1 ml cell suspension were cultured in 12-well culture dishes with 0.9 ml of cell culture medium. Cultures were incubated in a 37° C. humidified atmosphere of 8% CO2 in air. On days 1, 3 and 5, the cell culture medium was renewed. Cells were used on day 7.
Glucose uptake in vitro was performed as previously described (Yamamoto, Hutchinson et al. 2007). On day 7 the cells were treated with inhibitors for 30 min before addition of isoproterenol for 2 hours, unless otherwise indicated. […] Reactions were terminated by washing in ice-cold PBS, cells lysed (400 μl of 0.2 M NaOH, 1 h at 60° C.) and the incorporated radioactivity determined by liquid scintillation counting.

mTOR = mTOR phosphorylation at Ser2481 and Ser2448 by western blot; assay type: cell-based; settings: 1 μM isoprenaline, 2 hours
Source text: The immunoblot is representative of three experiments performed.

GLUT1 [3] = assay: Western blot of total GLUT1 protein content; assay type: cell-based, NMRI mice; settings: isoproterenol 1 μM, 0-2 h; for total GLUT1 protein content (Western blot): in presence or absence of 1 μM KU 0063794, p=0.0067 and p=0.0017, n=3
Procedure: Brown adipocytes were grown as described in Example 1 and differentiated in 12 well plates and serum starved the night prior to experiment. On day 7 the cells were challenged with inhibitors for 30 min before being stimulated with drugs as indicated. Lysates were prepared in prewarmed (65° C.) sample buffer (62.5 mM Tris pH 6.8, 2% SDS, 10% glycerol, 50 mM dithiothreitol, 0.1% bromophenol blue) and boiled for 5 min. Samples were loaded on a 8 or 12% acrylamide gel and separated for 2 hours at 100 V. Proteins were transferred to Hybond-P polyvinylidene difluoride membranes (pore size […]; Amersham Biosciences, Arlington Heights, Ill.). The primary GLUT1 antibody (diluted 1:1000) was from AbCam (Cambridge, UK). The primary antibody was detected using a secondary antibody (horseradish peroxidase-linked anti-rabbit IgG, Cell Signaling) diluted 1:2000 and enhanced chemiluminescence (ECL, Amersham Biosciences). Images were quantified using Image J 1.46r. […] Western blot of GLUT1 protein content in mature brown adipocytes was quantified after isoproterenol stimulation (1 μM, 0-2 h) in presence or absence of 1 μM KU 0063794.

GLUT1 [4] = assay: Immunocytochemistry of plasma membrane GLUT1 (translocation) in non-permeabilized cells; assay type: cell-based, NMRI mice; settings: KU 0063794 1 μM, isoproterenol 1 μM, 2 h, p=0.0153, n=3
Procedure: as §1

mouse rictor = assay: Rictor knock down with siRNA, then glucose uptake or western blotting; assay type: cell-based; settings: 2.5 μg/ml siRNA
Procedure: Primary brown adipocytes were used on day 3 and transfected with K2 Transfection System (Biontex laboratories) according to manufacturer's protocol using 2.5 μg/ml of siRNA (sequence: […]) directed against mouse rictor (from Sigma). 24 h after transfection, glucose uptake or western blotting was performed as described above.

## CC(C)NCC(O)c1ccc(O)c(O)c1 (centres unmarked) [Isoproterenol]
GLUT1 [1]; p=0.0334, n=3
  total cellular GLUT1 (de novo synthesis), permeabilized cells: de novo synthesis can be stimulated
BAT; isoproterenol 1 mg/kg ip
  glucose uptake in brown fat in vivo: stimulated glucose uptake in vivo
[2]
  glucose uptake: increase glucose uptake
[2]; listed as isoproterenol
  glucose uptake: increases glucose uptake
mTOR
  mTOR phosphorylation at Ser2448: not at Ser2448
GLUT1 [3]
  total GLUT1 protein content (Western blot): significantly increase the amount of GLUT1
GLUT1 [3]; listed as isoproterenol
  total GLUT1 protein content (Western blot): increased total GLUT1 content

## COc1ccc(-c2ccc3c(N4CCOCC4)nc(N4C[C@@H](C)O[C@@H](C)C4)nc3n2)cc1CO [KU 0063794]
GLUT1 [1]; KU 0063794 1 μM
  effect of mTOR inhibitor on stimulated de novo synthesis of GLUT1, permeabilized cells: not inhibited by inhibition of mTOR
BAT; KU 0063794 before isoproterenol 1 mg/kg ip, p=0.0175
  reduction of isoproterenol stimulated glucose uptake in vivo: significantly reduced
GLUT1 [3]; KU 0063794 1 μM
  effect of mTOR inhibitor on isoproterenol-increased GLUT1 content (Western blot): mTOR independent manner
GLUT1 [4]
  inhibition of isoproterenol-stimulated translocation of GLUT1 to the plasma membrane: prevents the translocation of GLUT1 to the plasma membrane

## CCC(=O)N1CCN(c2ccc(-n3c(=O)ccc4cnc5ccc(-c6cnc7ccccc7c6)cc5c43)cc2C(F)(F)F)CC1 [Torin-1]
[2]; Torin-1 1 μM, 30 min before isoproterenol 1 μM
  inhibition of isoproterenol stimulated glucose uptake: full inhibition of glucose uptake

## siRNA directed against mouse rictor: siRNA (sequence: CAGAAAGCAATCGCAACTCACCACA) directed against mouse rictor (from Sigma) (chemistry not given here)
Mouse rictor; 24 h after transfection, p=0.0105, n=3
  inhibition of isoproterenol (GPCR) stimulated glucose uptake by rictor knock down: fully inhibited
Mouse rictor; K2 transfection system
  rictor protein after knock down: reduction of rictor protein
